In brackets after ≈: the same amount, converted by molar mass. Where a name gives a salt, the structure may show the parent alone.
Columns and labels:
[1] = tested on: Mycobacterium tuberculosis; experiment: Antimycobacterial activity against Mycobacterium tuberculosis H37Rv assessed as bacterial growth at 5 ug/mL after 45 days by Lowenstein-Jensen method; type: functional
[2] = tested on: Mycobacterium tuberculosis; experiment: Antimycobacterial activity against Mycobacterium tuberculosis H37Rv assessed as growth inhibition after 45 days by Lowenstein-Jensen method; type: functional
[3] = Selectivity index, ratio of IC50 for HEK293T cells to MIC for Mycobacterium tuberculosis H37Rv; type: functional, HEK-293T
HEK-293T = experiment: Cytotoxicity against HEK293T cells assessed as cell viability after 72 hrs by MTT assay; type: cell-based; conditions: Homo sapiens
[4] = tested on: Mycobacterium tuberculosis; experiment: Antimycobacterial activity against Mycobacterium tuberculosis assessed as growth inhibition; type: functional
Mycobacterium avium = experiment: Antimycobacterial activity against Mycobacterium avium 724 assessed as growth inhibition after 12 days microdrop agar proportion test; type: functional; conditions: Mycobacterium avium, 724, 288 h
Mycolicibacterium aurum = experiment: Antimycobacterial activity against Mycobacterium aurum A+ assessed as growth inhibition after 4 days microdrop agar proportion test; type: functional; conditions: 96 h

SMILES	Activity [1]	MIC [2]	further results
CC[C@H](CO)NC(=O)N[C@H](CC)CO	100%	> 24.5 µM	–
CC[C@H](CO)NC(=O)N(C)C	100%	> 31.2 µM	–
CC[C@H](CO)NC(=S)NC	100%	> 30.8 µM	–
CCNC(=S)N[C@H](CC)CO	100%	> 28.4 µM	–
CC[C@H](CO)NC(=S)NC(=O)CCc1ccccc1	–	7.13 µM (≈ 2 µg/mL)	Selectivity Index [3]: 9.3; IC50 (HEK-293T): 66.2 µM
CC[C@H](CO)NC(=S)NC(=O)/C=C/c1ccccc1	–	0.36 µM (≈ 0.1 µg/mL)	Selectivity Index [3]: 119.2; IC50 (HEK-293T): 42.9 µM
CC[C@H](CO)NC(=S)NC(=O)c1ccc(N(C)C)cc1	–	3.39 µM (≈ 1 µg/mL)	Selectivity Index [3]: 3.8; IC50 (HEK-293T): 12.8 µM
CC[C@H](CO)NC(=S)NC(=O)c1ccccc1O	–	7.46 µM (≈ 2 µg/mL)	Selectivity Index [3]: 14; IC50 (HEK-293T): 104 µM
CCCNC(=O)N[C@H](CC)CO	100%	> 28.7 µM	–
CCCCNC(=O)N[C@H](CC)CO	100%	> 26.6 µM	–
CC[C@H](CO)NC(=O)NC1CCCCC1	100%	> 23.3 µM	–
CC[C@H](CO)NC(=O)NCC(c1ccccc1)c1ccccc1	100%	4.8 µM (≈ 1.5 µg/mL)	–
CC[C@H](CO)NC(=O)NC12CC3CC(CC(C3)C1)C2	100%	> 18.8 µM	–
CC[C@H](CO)NC(=O)NCCc1ccccc1	100%	> 21.2 µM	–
CC[C@H](CO)NC(=O)NCc1ccccc1	100%	> 22.5 µM	–
CC[C@H](CO)NC(=O)N[C@H](C)c1ccccc1	100%	> 21.2 µM	–
CC[C@H](CO)NC(=O)Nc1ccccc1	100%	> 24 µM	–
CC[C@H](CO)NC(=O)NCCCCCCNC(=O)N[C@H](CC)CO	100%	> 14.4 µM	–
CC[C@H](CO)NC(=O)Nc1ccc(NC(=O)N[C@H](CC)CO)cc1	100%	> 14.8 µM	–
CC[C@H](CO)NC(=O)Nc1ccc(Cc2ccc(NC(=O)N[C@H](CC)CO)cc2)cc1	100%	> 11.7 µM	–
CC[C@H](CO)NC(=O)NC(C)(C)C	100%	> 26.6 µM	–
CC[C@@H](CO)NCCN[C@@H](CC)CO [ETHAMBUTOL HYDROCHLORIDE]	–	7.22 µM	MIC [4]: 7.22 µM
CC(C)=CCC/C(C)=C/CNCCNC1C2CC3CC(C2)CC1C3 (stereo unspecified) [SQ109]	–	–	MIC [4]: 0.7 µM (≈ 0.231 µg/mL)
CC(C)CCOc1ccc(NC(=S)Nc2ccc(OCCC(C)C)cc2)cc1 [TIOCARLIDE]	–	–	MIC (Mycobacterium avium): 4.99 µM (≈ 2 µg/mL); MIC (Mycolicibacterium aurum): 4.99 µM
